Consider two compounds from ChEMBL document CHEMBL4834464, “Fragment-based Scaffold Hopping: Identification of Potent, Selective, and Highly Soluble Bromo and Extra Terminal Domain (BET) Second Bromodomain (BD2) Inhibitors” (J Med Chem, 2021).

The nature of data set [1]: Blood clearance in male Wistar Han rat at 0.5 mg/kg, iv and 3 mg/kg, po measured up to 7 hrs by LC-MS/MS analysis. Type of data set: ADME, organism-based.
A short description of data set [2]: Blood clearance in Beagle dog at 0.5 mg/kg, iv and 1 mg/kg, po measured up to 7 hrs by LC-MS/MS analysis. Type of data set: ADME, organism-based, Canis lupus familiaris.
Data set [3] is described as follows: Intrinsic clearance in Wistar han rat hepatocytes measured per gram of tissue incubated for 60 mins by LC-MS/MS method. Type of data set: ADME, cell-based, Hepatocyte. The following applies: 1 h.
The nature of data set [4]: Volume of distribution at steady state in Beagle dog at 0.5 mg/kg, iv and 1 mg/kg, po measured up to 7 hrs by LC-MS/MS analysis. To be noted: in vivo, read-out: Vdss. Type of data set: ADME, organism-based, Canis lupus familiaris.
Data set [5] is described as follows: Half life in Beagle dog at 0.5 mg/kg, iv and 1 mg/kg, po measured up to 7 hrs by LC-MS/MS analysis. Format: ADME, organism-based, Canis lupus familiaris. To be noted: in vivo.
Data set [6] is described as follows: Permeability of compound by AMP assay. The following applies: not told; read-out: permeability. Format: ADME.
Data set [7] is described as follows: Oral bioavailability in Beagle dog at 1 mg/kg measured up to 7 hrs by LC-MS/MS analysis. Type of data set: ADME, organism-based, Canis lupus familiaris. To be noted: in vivo.
A short description of data set [8]: Intrinsic clearance in human hepatocytes measured per gram of tissue incubated for 120 mins by LC-MS/MS method. Format: ADME, cell-based, Hepatocyte. The following applies: 2 h.
Data set [9] can be described thus: Half life in male Wistar Han rat at 0.5 mg/kg, iv and 3 mg/kg, po measured up to 7 hrs by LC-MS/MS analysis. Type of data set: ADME, organism-based. To be noted: in vivo.
Data set [10] can be described thus: Distribution coefficient, logD of the compound by chromatography. Type of data set: physicochemical. To be noted: octanol/water.
A short description of data set [11]: Solubility of the compound in FaSSIF at pH 6.5 incubated for 16 hrs by HPLC gradient analysis. Format: physicochemical. To be noted: simulated gi fluid, pH 6.5, 16 h.
Data set [12] can be described thus: Oral bioavailability in male Wistar Han rat at 3 mg/kg measured up to 7 hrs by LC-MS/MS analysis. Format: ADME, organism-based. To be noted: in vivo.
A short description of data set [13]: Apparent permeability across apical to basolateral side in MDCK cells. Type of data set: ADME, cell-based, Canis lupus familiaris. The following applies: dog.
Data set [14] is described as follows: Volume of distribution at steady state in male Wistar Han rat at 0.5 mg/kg, iv and 3 mg/kg, po measured up to 7 hrs by LC-MS/MS analysis. Format: ADME, organism-based. To be noted: in vivo, read-out: Vdss.
The nature of data set [15]: Solubility of the compound by CLND assay. Format: physicochemical.
The nature of data set [16]: Intrinsic clearance in dog hepatocytes measured per gram of tissue by LC-MS/MS method. Type of data set: ADME, cell-based, Canis lupus familiaris, Hepatocyte.
Data set [17] can be described thus: Volume of distribution at steady state in Beagle dog at 0.5 mg/kg, iv and 0.7 mg/kg, po measured up to 7 hrs by LC-MS/MS analysis. Type of data set: ADME, organism-based, Canis lupus familiaris. To be noted: in vivo, read-out: Vdss.
Data set [18] in a line: Half life in Beagle dog at 0.5 mg/kg, iv and 0.7 mg/kg, po measured up to 7 hrs by LC-MS/MS analysis. Format: ADME, organism-based, Canis lupus familiaris. The following applies: in vivo.
The nature of data set [19]: Half life in male Wistar Han rat at 1 mg/kg, iv and 3 mg/kg, po measured up to 7 hrs by LC-MS/MS analysis. Type of data set: ADME, organism-based. The following applies: in vivo.
Data set [20] is described as follows: Oral bioavailability in Beagle dog at 0.7 mg/kg measured up to 7 hrs by LC-MS/MS analysis. Type of data set: ADME, organism-based, Canis lupus familiaris. To be noted: in vivo.
A short description of data set [21]: Blood clearance in Beagle dog at 0.5 mg/kg, iv and 0.7 mg/kg, po measured up to 7 hrs by LC-MS/MS analysis. Format: ADME, organism-based, Canis lupus familiaris.
Data set [22] can be described thus: Blood clearance in male Wistar Han rat at 1 mg/kg, iv and 3 mg/kg, po measured up to 7 hrs by LC-MS/MS analysis. Type of data set: ADME, organism-based.
Data set [23] can be described thus: Volume of distribution at steady state in male Wistar Han rat at 1 mg/kg, iv and 3 mg/kg, po measured up to 7 hrs by LC-MS/MS analysis. The following applies: in vivo, read-out: Vdss. Format: ADME, organism-based.
A short description of data set [24]: Kinetic solubility of compound […] using the charged aerosol detector (CAD) analysis. Type of data set: physicochemical. To be noted: read-out: Kinetic_solubility.

The structures appear in SMILES notation. Converted amounts (≈) assume the structure as drawn. Where only a bound is given, the exact number is not on record here.

As a reminder, the half-life is the time in which the quantity being followed falls by half. The low end stands for fast loss, the high end for slow loss. One may read the bioavailability as the share of a dose that reaches the circulation, judged against a reference dose that is usually intravenous. High values mean much systemic uptake, low ones little systemic uptake. The term chromatographic logD denotes a lipophilicity value derived from retention on a column. The term solubility denotes the dissolved amount per volume that the medium holds. A higher solubility goes with a readily soluble substance. Broadly, the Papp A→B is the apparent permeability from the apical to the basolateral side of a cell layer.

For the compound `CNC(=O)c1cc(C(=O)N[C@H]2CC[C@H](O)CC2)n([C@@H](C)c2ccccc2)n1`, the clearance in data set [1] came out at 13 mL/min/kg; in data set [2], 1 mL/min/kg. In addition, the values for the CLint in data set [3], in data set [8] and in data set [16] were 0.9 mL/min/g, less than 0.5 mL/min/g and less than 0.7 mL/min/g, respectively. For the same compound, the Vd in data set [4] was 0.9 L/kg; in data set [14] it was 1.1 L/kg. Further, the half-life in data set [5] is 9 h; in [9], 1.3 h. In addition, the Papp in [6] was 8 ×10⁻⁶ cm/s. Moreover, the bioavailability in data set [7] was found to be 30%; in data set [12] it was 58%. Also, in data set [10], the chromatographic logD came to 2.9. Besides, the solubility in data set [11] was 366 µg/mL (≈ 988 µM). Besides, the apical-to-basolateral permeability (Papp A→B) in [13] stood at 4.1 ×10⁻⁶ cm/s. Further, in [15], the solubility kinetic is not below 180 µg/mL.

For the compound `CNC(=O)c1cc(C(=O)N[C@H]2[C@@H]3C[C@@H](O)C[C@@H]32)n([C@@H](C)c2cccc(Cl)c2)n1`, the Vd amounted to 0.8 L/kg in [17] and 2.6 L/kg in data set [23]. Further, the CLint in data set [3] was 1 mL/min/g; in [8] it was less than 0.45 mL/min/g; in data set [16], less than 0.65 mL/min/g. The half-life in data set [18] was 5 h; in data set [19], 2.9 h. In addition, the Papp in data set [6] turned out to be 19.7 ×10⁻⁶ cm/s. Moreover, the results for the bioavailability in [20] and in data set [12] were 58% and 57%, respectively. For the same compound, the clearance was found to be 2 mL/min/kg in data set [21] and 21 mL/min/kg in data set [22]. The chromatographic logD in [10] is 3.4. For the same compound, in data set [24], the solubility kinetic was 175 µg/mL (≈ 434 µM).
